Paper PMC11567856, “A novel peptide‐based tau aggregation inhibitor as a potential therapeutic for Alzheimer's disease and other tauopathies” (Alzheimer's & Dementia, 2024)
Where a SMILES comes first, the peptide text is derived from it. [ ]: non-standard residue; d: D form.

Experiments:
VQIVYK = target: T1, VQIVYK (Homo sapiens, UniProt P10636); experiment: ThT fluorescence, aggregation of VQIVYK peptide; assay type: biochemical; conditions: ThT end-point 24 h; 20 µM VQIVYK, 20 µM RI‐AG03 (equimolar), 5 µM heparin, pH 7.4; alone or combined with VQIINK
T1 construct: ^306VQIVYK^311 hexapeptide (motif found in all six isoforms)
Protocol: (§1) Fluorescence was measured (λex = 442 nm, λem = 483 nm), and data were normalized. […] The addition of inhibitor to the growth phase was controlled by adding an equivalent volume of buffer alone.
(§2) FIGURE 3 Lead peptide RI‐AG03 dose‐response and target specificity. […] (C) Concentration‐dependent inhibition of by Tau^Δ1‐250 by RI‐AG03. […] (E) Concentration‐dependent inhibition of by Tau^2N4R by RI‐AG03. […] (F) log10 scatter graph of Tau^2N4R inhibition by RI‐AG03 employing a curve fitting algorithm to calculate the IC50 at 5 µM. Experiments were conducted in triplicate and error bars were reported as standard deviation. One factor repeated measures ANOVA + Tukey post hoc statistical analysis: p > 0.05, *p ≤ 0.05, **p ≤ 0.01, ***p ≤ 0.001.

Tau^Δ1‐250 [1] = target: T2, Tau^Δ1‐250 (Homo sapiens, UniProt P10636); experiment: Circular dichroism of Tau^Δ1‐250 aggregation; assay type: biochemical; conditions: 20 µM Tau^Δ1‐250, 20 µM RI‐AG03, aggregated 5 h; CD 180–260 nm
T2 construct: Tau^Δ1‐250 (an aggregate prone truncated version of full‐length Tau); made in house; host or cells: E. coli BL21(DE3)
T2 sequence (P10636 568-758, stated change not applied): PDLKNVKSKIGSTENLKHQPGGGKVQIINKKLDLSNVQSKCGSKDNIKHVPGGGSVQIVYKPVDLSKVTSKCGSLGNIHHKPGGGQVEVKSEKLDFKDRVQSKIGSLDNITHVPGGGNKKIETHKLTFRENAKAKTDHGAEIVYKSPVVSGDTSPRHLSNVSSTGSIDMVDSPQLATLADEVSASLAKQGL
Protocol: Circular dichroism (CD): CD spectra were obtained using a Chirascan plus qCD spectrometer between 180 and 260 nm with a bandwidth of 1 nm and a path length of 2 mm.
FIGURE 4 Lead peptide RI‐AG03 suppresses Tau β‐sheet content and forms of off‐pathway structures. […] 20 µM RI‐AG03 was added after 0, 24, and 72 h, of Tau aggregation (hatched gray bars), or not at all (solid gray bar representing end‐point aggregation of Tau^2N4R at 9 days). Note that Tau^2N4R aggregation plateaued at ∼72 h. […] One factor repeated measures ANOVA + Tukey post hoc statistical analysis: p > 0.05, *p ≤ 0.05, **p ≤ 0.01, ***p ≤ 0.001. (C) Negative stain TEM images using a Joel JEM‐1010 after the aggregation of 20 µM Tau^Δ1‐250 for 24 h, in the absence of RI‐AG03 (left), and in the presence of 20 µM RI‐AG03 (right). (D) The area and diameter of 200 large spherical species formed in the presence of 20 µM RI‐AG03 and recorded by TEM were quantified using iTEM software. […]

Tau^2N4R = target: T3, Tau^2N4R (Homo sapiens, UniProt P10636); experiment: ThT fluorescence end-point, heparin-induced aggregation of Tau^2N4R; assay type: biochemical
T3 construct: and full‐length Tau (Tau^2N4R); made in house; host or cells: E. coli BL21
T3 sequence (P10636 1-441 isoform P10636-8): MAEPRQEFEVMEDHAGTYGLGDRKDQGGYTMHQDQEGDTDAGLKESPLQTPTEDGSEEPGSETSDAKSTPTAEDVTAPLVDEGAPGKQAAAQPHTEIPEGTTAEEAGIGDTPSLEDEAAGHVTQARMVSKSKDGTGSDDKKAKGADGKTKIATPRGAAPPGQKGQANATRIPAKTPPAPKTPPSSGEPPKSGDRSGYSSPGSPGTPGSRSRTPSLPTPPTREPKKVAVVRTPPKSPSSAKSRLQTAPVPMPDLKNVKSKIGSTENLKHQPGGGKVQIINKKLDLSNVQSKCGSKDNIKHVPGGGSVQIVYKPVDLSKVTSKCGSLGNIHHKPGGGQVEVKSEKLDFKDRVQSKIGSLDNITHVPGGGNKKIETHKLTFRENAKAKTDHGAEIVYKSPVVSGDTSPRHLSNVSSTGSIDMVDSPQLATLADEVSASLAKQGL
Protocol: as §1, §2

[2] = tested on: hTau^2N4R aggregates in Elav/hTau^2N4R flies; experiment: AFM of insoluble Tau fraction from fly heads; assay type: in vivo, Drosophila melanogaster; conditions: 6 weeks of treatment, 0.08 µM inhibitor (Figure 6 legend), insoluble Tau prep, n = 3, p = 0.0045
Protocol: […] Decapitated fly heads were homogenized in TBS/sucrose buffer (50 mM Tris‐HCl pH 7.4, 175 mM NaCl, 1 M sucrose, 5 mM EDTA and protease inhibitor cocktail). Samples were spun for 2 min at 1000 g, retaining the supernatant, which was then spun at 100,000 g for 30 min at 4°C. The supernatant included the aqueous soluble fraction and monomeric Tau “NS1.” The pellet was re‐suspended at ∼20°C–25°C in 5% SDS/TBS buffer (50 mM Tris‐HCl pH 7.4, 175 mM NaCl, 5% SDS, and protease inhibitor cocktail) and spun at 100,000 g for 30 at 25°C. The pellet “NP1” was washed three times with water to remove the remaining SDS from the fractionation and re‐suspended in 1X PBS. A solid glass bead was added to each sample and incubated overnight in a rotor at 4°C. AFM: NP1 (5 µL) was diluted in 1X PBS and 25 µL of the sample was placed in a freshly cleaved 10 mm mica disc. These were incubated at ∼20°C–25°C for 5 min. Samples were rinsed four times with ultrapure water and dried with compressed air. Samples were imaged in the air with a digital multimode Nanoscope IV AFM operating in tapping mode with an aluminum‐coated non‐contact/Tapping mode probe (resonance frequency 320 kHz and force constant 42 N/m). The images are representative of the sample and were taken at random points on the sample with a scan rate of 1–2 Hz. […] Quantification of aggregates was carried out using ImageJ software.

Tau^Δ1‐250 [3] = target: T2, Tau^Δ1‐250; experiment: Congo-red staining of Tau^Δ1‐250 fibrils; assay type: biochemical; conditions: Tau^Δ1‐250 incubated in the presence of RI‐AG03 (Figure S11)
Protocol: Tau filament formation is expected to coincide with a reduction in disordered structure and an increase in β‐sheet content, even as the intermediary on‐pathway oligomers form.[67] […] However, the off‐pathway Tau aggregates that we have previously described have reduced β‐sheet content.[69] To study the β‐sheet content of the large amorphous aggregates formed in the presence of RI‐AG03, samples were analyzed using time‐resolved circular dichroism (CD) to investigate spectra changes indicative of secondary structure in the presence of RI‐AG03 over 5 h (Tau^Δ1‐250 aggregation plateaus at ∼5 h) (Figure 4E). The negative transition at 195 nm is characteristic of random coil structures being present within the Tau^Δ ^1‐250 (blue). […] Although challenging to deconvolute the increase in the negative ellipticity between ∼205 and 235 nm is consistent with the appearance of secondary structural elements including β‐strands. […] This reduction in β‐sheet content is corroborated by congo‐red staining, where the strong apple‐green birefringence observed for the Tau^Δ1‐250 fibrils was eliminated when the Tau^Δ1‐250 was incubated in the presence of RI‐AG03 (Figure S11).

[4] = ThT fluorescence, self-assembly of peptide inhibitors without Tau; assay type: physicochemical; conditions: ThT end-point 216 h (9 days); 20 µM peptide, PBS, 1 mM DTT, 20 µM ThT, 10 µM heparin, pH 7.4; n=3
Protocol: as §1
Experiments were conducted in triplicate and error bars were reported as standard deviation. Statistical analysis: p > 0.05, *p ≤ 0.05, **p ≤ 0.01, ***p ≤ 0.001.

CC[C@@H](C)[C@@H](NC(=O)[C@@H](CCCCNC(C)=O)NC(=O)[C@@H](Cc1ccc(O)cc1)NC(=O)[C@@H](CCCCN)NC(=O)[C@H]1CCCN1C(=O)CNC(=O)[C@@H](CCCNC(=N)N)NC(=O)[C@@H](CCCNC(=N)N)NC(=O)[C@@H](CCCNC(=N)N)NC(=O)[C@@H](CCCNC(=N)N)NC(=O)[C@@H](CCCNC(=N)N)NC(=O)[C@@H](CCCNC(=N)N)NC(=O)[C@@H](CCCNC(=N)N)NC(=O)[C@@H](CCCNC(=N)N)NC(C)=O)C(=O)N[C@H](CCC(N)=O)C(=O)N[C@@H](C(=O)NCC(=O)N[C@H](CCCNC(=N)N)C(N)=O)C(C)C [RI‐AG03] (Ac-[dR][dR][dR][dR][dR][dR][dR][dR]G[dP][dK][dY][dK](Ac)[dI][dQ][dV]G[dR]-NH2)
effect on aggregation of VQIVYK peptide (VQIVYK): dramatically reduced | CD spectral changes (random coil to secondary structure incl. β‐strands) (Tau^Δ1‐250 [1]): significantly suppressed | IC50 (Tau^2N4R): 5 µM | ThT signal at 9 days, peptide added after 24 h of Tau^2N4R aggregation (Tau^2N4R; 20 µM Tau^2N4R, 20 µM RI‐AG03 added after 24 h, read at 216 h, versus negative control): reduction of ThT signal | ThT signal at 9 days, peptide added after 72 h of Tau^2N4R aggregation (Tau^2N4R; 20 µM Tau^2N4R, 20 µM RI‐AG03 added after 72 h, read at 216 h, versus negative control): no reduction of ThT signal | reduction in oligomeric and fibrillar Tau species (AFM) [2]: 73% | apple‐green birefringence of Tau^Δ1‐250 fibrils (congo‐red) (Tau^Δ1‐250 [3]): eliminated | self-association into β‐sheets over 216 h [4]: does not self‐associate into β‐sheets
